According to patent publication US20260022322A1, “MULTIMODAL BIOPHYSICAL CHARACTERIZATION APPARATUS, SYSTEM, METHOD, AND USE” (Yigong Ruixin (Xiamen) Technology Co., Ltd, priority 2023, published 2026):

Tests used:
[1] = system: macrophage cell line THP-1; experiment: Nuclear hardness of activated THP-1 by magnetic material method and fluorescence method; format: cell-based; conditions: THP-1 activated to M1-type macrophages
Source text: S1: Provide a chip whose surface is covered with PDMS nano-magnetic micropillars. The micropillars contain a fluorescent substance and have an extracellular matrix coating.
S2: Culture the macrophage cell line THP-1 on this chip. Contact between the THP-1 cells and the chip is made by controlling the height of the culture medium.
S3: Add lipopolysaccharide (LPS) to the culture medium to activate the THP-1 cells, causing them to transform into M1-type macrophages.
S4: After several days of cultivation, use the magnetic material method to turn on the magnetic field and measure the reflected light attenuation. After turning off the magnetic field, measure the light reflection signal attenuation value and frequency of each micropillar, and sequentially calculate the softness/hardness of the nucleus at each position.
S5: Use paraformaldehyde to fix the cells on the chip, and use DAPI to stain the nuclei.
S6: Using the fluorescence method, use a confocal microscope to perform a Z-axis tomographic scan from the top to the bottom of the micropillars, and analyze the depth of the DAPI signal of the nucleus between the micropillars. […]
The results measured by the magnetic material method and the fluorescence method are the same (FIG. 33), proving that the accuracy of measuring nuclear hardness by the magnetic material method has been cross-validated by the fluorescence method.

[2] = system: tumor cells; experiment: Immune-tumor cell interaction on cell mechanics chip with drug intervention; format: cell-based
Source text: S1. Prepare the chip: Select a cell mechanics chip with a micropillar structure. The top of the micropillars is coated with a suitable extracellular matrix (ECM) to promote the attachment and growth of tumor cells and immune cells. Use an anti-adhesion treatment on the side surfaces of the micropillars and in the space between them.
S2. Seed tumor cells and immune cells: Seed tumor cells and immune cells (such as NK cells or T cells) separately on the mechanics chip, allowing them to interact.
S3. Monitor the mechanical properties of the tumor cells: Use the light reflection signal and micropillar deflection to monitor in real-time the changes in the cell mechanical force and hardness of the tumor cells during their interaction with the immune cells.
S4. […] Softer tumor cells (with smaller cell mechanical force) are difficult for immune cells to recognize and kill.
S5. Drug intervention: Add the drug JAS, which makes tumor cells harder, to the culture medium, and observe the changes in the cell mechanical force and hardness of the tumor cells.
S6. Evaluate the effect of drug intervention: Under the action of the drug, the tumor cells become harder, and the cell mechanical force increases (FIG. 32). It was observed that the killing effect of immune cells on tumor cells was enhanced accordingly.

[3] = drug added to culture medium, micropillar chip, light reflection signal (FIG. 32)

Row | Compound | sagging depth of the nucleus between the micropillars ([1]; DAPI, confocal Z-axis scan (fluorescence method)) | nuclear hardness ([1]; magnetic material method and fluorescence method gave the same result (FIG. 33)) | cell mechanical force of the tumor cells [2, 3] | hardness of the tumor cells [2, 3] | killing effect of immune cells on tumor cells ([2]; tumor cells co-seeded with immune cells (such as NK cells or T cells), under the action of the drug)
1 | lipopolysaccharide [LPS] | becomes deeper | softer | – | – | –
2 | C/C1=C\[C@H](C)C[C@H](C)OC(=O)C[C@H](c2ccc(O)cc2)NC(=O)[C@@H](Cc2c(Br)[nH]c3ccccc23)N(C)C(=O)[C@H](C)NC(=O)[C@@H](C)C1 [JAS] | – | – | increases | become harder | enhanced
